According to PMC7316778 (Nature Communications, 2020):
Where two headings read alike, the source gives them in different places.

Columns and labels:
Test in all cases: SelectScreen kinase assay
BRSK1 (SAD1) = target: T1, BRSK1 (SAD1) (Homo sapiens, UniProt Q8TDC3)
T1 sequence (Q8TDC3 1-778): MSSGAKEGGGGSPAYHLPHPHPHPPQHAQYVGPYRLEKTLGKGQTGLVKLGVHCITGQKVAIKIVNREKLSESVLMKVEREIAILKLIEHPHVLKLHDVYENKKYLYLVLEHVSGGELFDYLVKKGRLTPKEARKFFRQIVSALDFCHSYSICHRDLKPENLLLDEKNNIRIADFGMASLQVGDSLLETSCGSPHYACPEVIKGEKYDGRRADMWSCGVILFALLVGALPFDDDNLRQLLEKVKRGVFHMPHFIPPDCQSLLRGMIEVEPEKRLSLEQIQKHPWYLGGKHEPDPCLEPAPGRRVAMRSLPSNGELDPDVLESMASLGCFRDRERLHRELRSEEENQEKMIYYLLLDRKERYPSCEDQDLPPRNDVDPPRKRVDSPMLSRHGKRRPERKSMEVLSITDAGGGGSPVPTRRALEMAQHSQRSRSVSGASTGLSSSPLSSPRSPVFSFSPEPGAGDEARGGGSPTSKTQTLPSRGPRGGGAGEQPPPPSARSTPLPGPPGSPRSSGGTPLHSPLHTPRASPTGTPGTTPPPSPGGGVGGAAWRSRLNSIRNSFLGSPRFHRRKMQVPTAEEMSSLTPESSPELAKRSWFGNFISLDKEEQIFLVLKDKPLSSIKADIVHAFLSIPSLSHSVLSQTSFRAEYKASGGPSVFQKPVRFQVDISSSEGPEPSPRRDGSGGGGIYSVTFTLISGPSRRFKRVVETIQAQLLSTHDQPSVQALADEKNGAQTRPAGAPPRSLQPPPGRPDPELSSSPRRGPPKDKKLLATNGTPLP
Protocol: (§1) Selectivity profiling assays were performed by the Invitrogen SelectScreen™ Services. […] The concentration of ATP was selected to be equal to the KM, unless indicated otherwise.

CAMK1 (CaMK1) = CAMK1 (CaMK1) (Homo sapiens, UniProt Q14012); details: 1 h, 1 μM WEL028, 1 h preincubation
Sequence of CAMK1 (CaMK1) (Q14012 whole entry): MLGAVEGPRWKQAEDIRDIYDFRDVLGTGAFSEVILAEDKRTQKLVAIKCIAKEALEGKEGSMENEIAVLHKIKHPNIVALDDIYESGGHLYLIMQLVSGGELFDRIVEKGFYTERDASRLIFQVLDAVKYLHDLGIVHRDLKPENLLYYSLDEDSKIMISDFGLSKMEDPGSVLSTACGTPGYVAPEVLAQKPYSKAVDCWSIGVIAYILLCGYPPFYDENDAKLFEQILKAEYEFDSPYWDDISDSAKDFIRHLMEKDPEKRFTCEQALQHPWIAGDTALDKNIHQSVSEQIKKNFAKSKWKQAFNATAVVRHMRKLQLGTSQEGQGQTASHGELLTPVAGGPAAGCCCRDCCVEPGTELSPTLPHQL
Protocol: as §1

DYRK2 = target: T2, DYRK2 (Homo sapiens, UniProt Q92630); details: for Inhibition at 1 µM (%): DYRK2, LanthaScreen Binding
T2 sequence (Q92630 1-601): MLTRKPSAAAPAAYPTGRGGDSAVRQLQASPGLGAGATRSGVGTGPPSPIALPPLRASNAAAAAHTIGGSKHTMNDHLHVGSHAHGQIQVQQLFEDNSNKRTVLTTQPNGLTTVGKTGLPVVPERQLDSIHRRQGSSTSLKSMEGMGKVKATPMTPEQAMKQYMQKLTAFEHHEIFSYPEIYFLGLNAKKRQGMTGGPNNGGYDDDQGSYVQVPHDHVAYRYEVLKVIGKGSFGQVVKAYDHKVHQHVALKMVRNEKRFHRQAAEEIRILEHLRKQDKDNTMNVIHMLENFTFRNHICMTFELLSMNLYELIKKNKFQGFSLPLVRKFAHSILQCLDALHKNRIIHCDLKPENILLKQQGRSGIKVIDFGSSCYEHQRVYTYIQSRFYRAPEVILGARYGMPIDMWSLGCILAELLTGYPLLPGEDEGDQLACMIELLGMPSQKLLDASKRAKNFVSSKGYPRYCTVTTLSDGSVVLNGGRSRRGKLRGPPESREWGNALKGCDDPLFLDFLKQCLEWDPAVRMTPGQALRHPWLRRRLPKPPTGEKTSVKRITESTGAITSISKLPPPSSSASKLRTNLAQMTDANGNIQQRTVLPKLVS
Protocol: as §1

FLT1 (VEGFR1) = FLT1 (VEGFR1) (Homo sapiens, UniProt P17948)
Sequence of FLT1 (VEGFR1) (P17948 27-1338): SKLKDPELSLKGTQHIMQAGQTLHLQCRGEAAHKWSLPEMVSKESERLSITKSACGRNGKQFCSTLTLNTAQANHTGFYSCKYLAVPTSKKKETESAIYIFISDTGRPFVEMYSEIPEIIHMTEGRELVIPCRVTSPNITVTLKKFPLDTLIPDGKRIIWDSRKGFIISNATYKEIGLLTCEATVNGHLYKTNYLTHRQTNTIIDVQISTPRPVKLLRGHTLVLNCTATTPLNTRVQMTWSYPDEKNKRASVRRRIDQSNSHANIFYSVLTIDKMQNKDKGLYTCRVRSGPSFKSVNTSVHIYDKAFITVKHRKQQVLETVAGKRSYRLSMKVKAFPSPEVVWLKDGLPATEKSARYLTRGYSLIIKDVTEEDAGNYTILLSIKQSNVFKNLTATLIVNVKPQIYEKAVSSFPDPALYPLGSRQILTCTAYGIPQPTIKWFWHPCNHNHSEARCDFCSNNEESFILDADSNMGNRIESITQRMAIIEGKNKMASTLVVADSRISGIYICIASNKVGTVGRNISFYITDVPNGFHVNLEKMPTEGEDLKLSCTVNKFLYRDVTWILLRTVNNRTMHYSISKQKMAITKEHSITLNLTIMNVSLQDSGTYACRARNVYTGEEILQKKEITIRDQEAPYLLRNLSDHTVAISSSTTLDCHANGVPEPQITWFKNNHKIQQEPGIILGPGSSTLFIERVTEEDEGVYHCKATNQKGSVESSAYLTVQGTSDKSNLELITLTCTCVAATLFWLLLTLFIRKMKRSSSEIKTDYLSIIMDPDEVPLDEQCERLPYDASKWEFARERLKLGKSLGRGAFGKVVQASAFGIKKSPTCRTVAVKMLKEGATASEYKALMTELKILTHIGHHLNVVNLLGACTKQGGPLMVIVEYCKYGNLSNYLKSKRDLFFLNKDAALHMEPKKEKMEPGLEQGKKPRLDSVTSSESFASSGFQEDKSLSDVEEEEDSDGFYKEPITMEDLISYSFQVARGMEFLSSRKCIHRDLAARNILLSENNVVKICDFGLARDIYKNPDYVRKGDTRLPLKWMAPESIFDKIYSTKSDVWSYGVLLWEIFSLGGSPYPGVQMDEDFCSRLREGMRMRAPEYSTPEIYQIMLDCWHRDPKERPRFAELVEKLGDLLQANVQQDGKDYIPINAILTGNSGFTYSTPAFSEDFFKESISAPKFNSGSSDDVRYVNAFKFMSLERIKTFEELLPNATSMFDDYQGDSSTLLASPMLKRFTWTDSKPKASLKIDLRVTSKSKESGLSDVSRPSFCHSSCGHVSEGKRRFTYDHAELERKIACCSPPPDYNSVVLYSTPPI
Protocol: as §1

GRK6 = GRK6 (Homo sapiens, UniProt P43250)
Sequence of GRK6 (P43250 whole entry): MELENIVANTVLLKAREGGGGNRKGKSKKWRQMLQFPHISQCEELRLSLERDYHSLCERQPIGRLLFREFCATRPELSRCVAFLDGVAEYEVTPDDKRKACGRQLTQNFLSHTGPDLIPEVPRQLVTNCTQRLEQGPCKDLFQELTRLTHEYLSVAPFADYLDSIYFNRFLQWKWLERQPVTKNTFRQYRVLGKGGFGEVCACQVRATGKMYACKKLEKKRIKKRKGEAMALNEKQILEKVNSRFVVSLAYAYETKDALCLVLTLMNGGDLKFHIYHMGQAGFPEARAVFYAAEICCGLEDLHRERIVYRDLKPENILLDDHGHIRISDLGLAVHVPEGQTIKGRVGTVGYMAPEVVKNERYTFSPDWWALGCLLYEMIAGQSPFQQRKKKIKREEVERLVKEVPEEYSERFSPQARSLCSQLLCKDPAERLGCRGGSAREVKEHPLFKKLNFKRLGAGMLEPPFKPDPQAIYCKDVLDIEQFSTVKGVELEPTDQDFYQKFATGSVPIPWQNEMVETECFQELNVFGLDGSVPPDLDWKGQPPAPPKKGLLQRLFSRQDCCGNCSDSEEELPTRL
Protocol: as §1

[1] = target: T3, MAP3K7/MAP3K7IP1 (TAK1-TAB1) (Homo sapiens, UniProt O43318)
T3 sequence (O43318 1-303 limits assumed): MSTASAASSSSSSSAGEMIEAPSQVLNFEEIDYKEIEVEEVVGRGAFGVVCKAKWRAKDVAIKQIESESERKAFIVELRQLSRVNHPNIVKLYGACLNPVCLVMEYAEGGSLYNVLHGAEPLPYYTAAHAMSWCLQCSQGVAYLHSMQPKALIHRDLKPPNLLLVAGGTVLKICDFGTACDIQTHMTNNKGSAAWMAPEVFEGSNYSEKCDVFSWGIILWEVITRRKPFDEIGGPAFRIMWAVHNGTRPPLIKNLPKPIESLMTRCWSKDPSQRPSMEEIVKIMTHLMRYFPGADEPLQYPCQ
T3 sequence (Q15750 437-504 partner limits assumed): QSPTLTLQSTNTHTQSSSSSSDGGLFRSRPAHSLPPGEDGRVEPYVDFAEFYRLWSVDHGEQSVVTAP
Protocol: as §1

[2] = 1 h, 1 μM WEL028, 1 h preincubation

## C#CCOc1ccc(Nc2ncc(Cl)c(Nc3ccccc3NC(=O)C=C)n2)c(OC)c1 [Compound 6]
BRSK1 (SAD1); [2]
  inhibition at 1 µM: 2%
BRSK1 (SAD1); BRSK1 (SAD1), 1 µM, ZLYTE, ATP Km app, listed as WEL028, 1 µM
  Inhibition at 1 µM (%): 1%
BRSK1 (SAD1); read-out: Inhibition at 1 µM (%), BRSK1 (SAD1), 1 µM, ZLYTE, ATP Km app
  inhibition at 1 µM: 2%
CAMK1 (CaMK1)
  inhibition at 1 µM: 6%
DYRK2; [2]
  inhibition at 1 µM: 7%
DYRK2
  Inhibition at 1 µM (%): 11%
DYRK2; listed as WEL028, 1 µM
  Inhibition at 1 µM (%): 4%
FLT1 (VEGFR1); [2]
  inhibition at 1 µM: 36%
FLT1 (VEGFR1); FLT1 (VEGFR1), 1 µM, ZLYTE, ATP Km app, listed as WEL028, 1 µM
  Inhibition at 1 µM (%): 31%
FLT1 (VEGFR1); read-out: Inhibition at 1 µM (%), FLT1 (VEGFR1), 1 µM, ZLYTE, ATP Km app
  inhibition at 1 µM: 42%
GRK6; 1 h
  inhibition at 1 µM: 0%
GRK6; read-out: Inhibition at 1 µM (%)
  inhibition at 1 µM: 0%
[1]; [2]
  inhibition at 1 µM: 13%
[1]; MAP3K7/MAP3K7IP1 (TAK1-TAB1), 1 µM, LanthaScreen Binding, listed as WEL028, 1 µM
  Inhibition at 1 µM (%): 15%
[1]; read-out: Inhibition at 1 µM (%), MAP3K7/MAP3K7IP1 (TAK1-TAB1), 1 µM, LanthaScreen Binding
  inhibition at 1 µM: 11%
